The text below walks through data of EP1383793B1 (priority 2000, dated 2001).

Read-outs that look alike come from different tables or passages of the source. Residues, ends and D or L forms follow the SMILES beside them. No end group written: not given here. *: point of attachment. Biotin = O=C1N[C@H]2[C@H](CS[C@H]2CCCCC(=O)*)N1

The IC50 is the concentration at which inhibition is half-maximal.

One series has as its system adipocytes. Briefly: 3H-glucose uptake into adipocytes (fat cell assay, FFC). In kind it is cell-based, Mouse. Also on record: key to Resp.: -2 (antagonist); +2 (agonist). The conditions noted are these: for Resp.: Subjective ranking, basal and sub maximal insulin, includes series A.
The target of series [1] is T1, IGF-1R (Homo sapiens, UniProt P08069).
T1 construct: Soluble IGF-1R was obtained from R&D Systems; purchased R&D Systems 391-GR/CF
Briefly: Phage ELISA, binding of phage-displayed peptides to IGF-1R. The note with it: 405 nm. As to the method: Figures 1A-10G. Amino acid sequences comprising the motif of Formulas 1 through 10. […] One hundred microliters of this solution was added to an appropriate number of wells in a 96-well microtiter plate (MaxiSorp plates, Nunc) and incubated overnight at 4°C. […] Subsequent steps are the same for pooled and clonal phage. […] Phage resuspended in MPBS were added to duplicate wells (100 µl/well) and incubated at RT for 1 h. […] Incubation was for 1 h at RT, followed by PBS washes as described. […] Phage ELISA. […] The wells were blocked with 200 µl of MPBS for 1.5 h at RT. Phage were added at 100 µl per well. Peptides were added as noted below and allowed to incubate at RT for 3 h. The plates were washed 3 times with PBST. A solution of 1:3000 diluted HRP:Anti-M13 conjugate at 100 µl per well of was added for 1 h. Following a repeat of the washing, 100 µl of ABTS was added for 15-30 min. […] Phage ELISA. […] Phage were added at 100 µl per well. Peptides were added as noted below and allowed to incubate at RT for 3 h. The plates were washed 3X with PBST. A solution of 1:3000 diluted HRP:Anti-M13 Conjugate at 100 µl per well of was added for 1 h. Following a repeat of the washing, 100 µl of ABTS was added for 15-30 min. The OD405 was measured using a SpectraMax 340 Microplate Spectrophotometer.

The target in another series is T2, IR (Homo sapiens, UniProt P06213).
T2 construct: composed of the extracellular domains of both the α and β chains of the natural receptor; made in house; background b13 names human embryonic kidney 293 cells for the Bass et al. construct
Briefly: Phage ELISA, binding of phage-displayed peptides to IR. The conditions noted are these: 405 nm. As to the method: Amino acid sequences comprising the motif of Formulas 1 through 10. […] Fifty microliters of this solution was added to an appropriate number of wells in a 96-well microtiter plate (MaxiSorp plates, Nunc) and incubated overnight at 4°C. […] To isolate specific binders, each library was panned against a soluble form of the human IR. This IR is composed of the extracellular domains of both the α and β chains of the natural receptor, as well as the constant domain from immunoglobulin Fc, retaining the β-α-α-β structure described above. Because the IR is expressed in a eukaryotic system, disulfide bond formation and glycosylation patterns should mimic the wild-type receptor. The details of this recombinant protein construct are described in Bass et al. (1996). Phage ELISA. […] The wells were blocked with 200 µl of MPBS for 1.5 h at RT. […] Peptides were added as noted below and allowed to incubate at RT for 3 h. The plates were washed 3 times with PBST. A solution of 1:3000 diluted HRP:Anti-M13 conjugate at 100 µl per well of was added for 1 h. Following a repeat of the washing, 100 µl of ABTS was added for 15-30 min. […] Phage ELISA. […] Peptides were added as noted below and allowed to incubate at RT for 3 h. […] A solution of 1:3000 diluted HRP:Anti-M13 Conjugate at 100 µl per well of was added for 1 h. Following a repeat of the washing, 100 µl of ABTS was added for 15-30 min. The OD405 was measured using a SpectraMax 340 Microplate Spectrophotometer.
(In general: An ELISA detects its analyte on a solid surface through an enzyme-linked reagent.)

The nature of series [2]: Precipitate in diluted peptide stock prior to adding to the fat cell assay; solubility under assay conditions. The series is classed as physicochemical. The note with it: diluted stock prior to adding to assay.
Series [3] has as its target T3, human insulin receptor (HIR) (Homo sapiens, UniProt P06213).
T3 construct: made in house
In words: 125I-insulin competition binding assay on solubilised purified receptor.

The target in series [4] is human IGF-1 receptor (HIGF-1R) (Homo sapiens, UniProt P08069). Briefly: 125I-IGF-1 competition binding assay on solubilised purified receptor.
The target in series [5] is T1, IGF-1R. Briefly: IGF-1R peptide assay, time-resolved FRET, competition with biotinylated 20E2 (IC50). The series is classed as binding.
Description: Assays have been developed using Time-Resolved Fluorescence Resonance Energy Transfer (FRET). These assays are not radioactive, homogeneous (no wash steps), and can be rapidly carried out in 96- or 384-well microtiter plate format facilitating their use in high-throughput screening assays for small organic molecules.
The IGF-1R was labeled with Europium (Eu) by EG&G Wallac.
The Streptavidin-Allophycocynanin (SA-APC) was obtained from Prozyme Cat. # PJ25S.
• a. Preparation of the Assay Mix. […] This mixture was allowed to pre-incubate at RT in the dark for 1-2 h before competitor was added. • b. […] 100 µl of Buffer (TBS pH 8.0 + 0.1 % BSA) were dispensed to wells in columns 1 through 11. Competitors and Buffer were added to Column 12 wells so that the total volume is 150 µl. • c. […] Compounds are dissolved in 100% DMSO. Therefore, 100 µl of Buffer (TBS pH 8.0 + 0.1 % BSA) with 4% DMSO are dispensed to wells in columns 1 through 10. […] Compounds (6 µl) are added into 144 µl Buffer (No DMSO) to Column 12 wells. • d. Dilutions were performed across columns on the plate. Once competitors were dispensed into Column 12 and mixed, 50 µl of the solution Column 12 were transferred to wells in 11 and mixed. 50 µl of the Column 11 mixture was transferred to Column 10 wells. This was repeated until 50 µl of Column 3 mixture was transferred to Column 2 wells. Once accomplished to Column 2, 50 µl from Column 2 were removed and discarded. Column 1 wells were reserved for No Competitor Wells. 100 µl volume was therefore maintained across all columns. • e. 50 µl of the Assay Mix was dispensed into wells on a new 96-well microtiter plate. 50 µl from the Dilutions Plate were then added to this plate. • f. […] This covered plate was allowed to incubate at RT overnight. • g. […] Compounds begin at 200 µM in a working concentration of 2% DMSO. Controls also contained 2% DMSO.

Consider `CC[C@H](C)[C@H](NC(=O)[C@H](C)NC(=O)[C@H](CC(=O)O)NC(=O)[C@H](Cc1ccc(O)cc1)NC(=O)[C@H](Cc1ccccc1)NC(=O)[C@H](CC(=O)O)NC(=O)[C@H](CCCCN)NC(=O)[C@H](Cc1ccc(O)cc1)NC(=O)[C@@H](N)CC(=O)O)C(=O)N[C@@H](CC(=O)O)C(=O)N[C@@H](CCC(N)=O)C(=O)N[C@@H](CC(C)C)C(=O)N[C@H](C(=O)N[C@@H](CCCNC(=N)N)C(=O)NCC(=O)N[C@@H](CO)C(=O)N[C@@H](C)C(=O)N[C@@H](CCCNC(=N)N)C(=O)N[C@@H](C)C(=O)NCC(=O)NCC(=O)N[C@H](C(=O)N[C@@H](CCCNC(=N)N)C(=O)N[C@@H](CC(=O)O)C(=O)N[C@@H](CCCCN)C(=O)N[C@@H](CCCCNC(=O)CCCC[C@@H]1SC[C@@H]2NC(=O)N[C@@H]21)C(N)=O)[C@@H](C)O)C(C)C` [Clone 20E2] (H-DYKDFYDAIDQLVRGSARAGGTRDKK(Biotin)-NH2; N-terminus assumed), for which, in the series on adipocytes, the “Comments (dose response, effect at basal insulin)” value is listed as “Biphasic dose response curve (needs repeating)” and the Resp. result is “+2”. The ED50 result with adipocytes (Estimated, not calculated values) is reported as “Approx 20 µM”. In addition, the “Absorbance Values sIGF-1R” value at IGF-1R [1] was 2.15. Besides, the “Absorbance Values IR” value at IR was 1.01.

Consider `CC(C)C[C@H](NC(=O)[C@@H](NC(=O)[C@@H](N)CCCCN)C(C)C)C(=O)N[C@@H](CCC(N)=O)C(=O)N[C@@H](C)C(=O)N[C@@H](CCCNC(=N)N)C(=O)N[C@@H](Cc1c[nH]cn1)C(=O)NCC(=O)N[C@@H](CS)C(=O)N[C@@H](CC(=O)O)C(=O)N[C@@H](CO)C(=O)N[C@H](C(=O)N[C@@H](CO)C(=O)N[C@@H](CC(=O)O)C(=O)N[C@@H](CS)C(=O)N[C@@H](Cc1ccccc1)C(=O)N[C@@H](Cc1ccc(O)cc1)C(=O)N[C@@H](CCC(=O)O)C(=O)N[C@@H](Cc1c[nH]c2ccccc12)C(=O)N[C@@H](Cc1ccccc1)C(=O)N[C@@H](C)C(=O)N[C@@H](CCCCN)C(=O)N[C@@H](CCCCNC(=O)CCCC[C@@H]1SC[C@@H]2NC(=O)N[C@@H]21)C(N)=O)C(C)C` [Clone D102] (H-KVLQARHGCDSVSDCFYEWFAKK(Biotin)-NH2; N-terminus assumed), for which the Resp. in the series with adipocytes came out at 0. Further, the “Comments (precipitation)” value in series [2] is listed as “Precipitates”.

Take `CC(C)C[C@H](NC(=O)CNC(=O)[C@H](CC(=O)O)NC(=O)[C@H](CCC(N)=O)NC(=O)[C@H](CCCCN)NC(=O)[C@H](CC(N)=O)NC(=O)[C@H](CO)NC(=O)[C@@H](NC(=O)[C@H](CC(C)C)NC(=O)CNC(=O)[C@@H]1CCCN1C(=O)[C@H](C)NC(=O)[C@H](CO)NC(=O)[C@@H](N)CCCCN)C(C)C)C(=O)N[C@@H](Cc1ccccc1)C(=O)N[C@@H](Cc1ccc(O)cc1)C(=O)N[C@@H](CO)C(=O)N[C@@H](Cc1c[nH]c2ccccc12)C(=O)N[C@@H](Cc1ccccc1)C(=O)N[C@@H](CCCNC(=N)N)C(=O)N[C@@H](CCC(=O)O)C(=O)N[C@@H](CCCCN)C(=O)N[C@@H](CCCCNC(=O)CCCC[C@@H]1SC[C@@H]2NC(=O)N[C@@H]21)C(N)=O` [Clone D109] (H-KSAPGLVSNKQDGLFYSWFREKK(Biotin)-NH2): the values for the Kd in series [3] (read-out: Kd (µM) HIR) and in series [4] were 3.6 µM and 12 µM, respectively.

As for `CC(C)[C@H](NC(=O)[C@H](Cc1ccccc1)NC(=O)[C@H](Cc1c[nH]c2ccccc12)NC(=O)[C@H](CC(=O)O)NC(=O)[C@H](Cc1ccc(O)cc1)NC(=O)[C@H](Cc1ccccc1)NC(=O)[C@H](CC(N)=O)NC(=O)[C@H](CCCCN)NC(=O)[C@H](C)NC(=O)[C@@H](N)CO)C(=O)N[C@@H](CCCCN)C(=O)N[C@@H](CCCCNC(=O)CCCC[C@@H]1SC[C@@H]2NC(=O)N[C@@H]21)C(N)=O` [Clone D114] (H-SAKNFYDWFVKK(Biotin)-NH2), the Kd was 8.1 µM in series [3] (read-out: Kd (µM) HIR) and greater than 20 µM in series [4].

On to `CSCC[C@H](NC(=O)[C@H](Cc1ccccc1)NC(=O)[C@H](Cc1c[nH]c2ccccc12)NC(=O)[C@H](CC(=O)O)NC(=O)[C@H](Cc1ccc(O)cc1)NC(=O)[C@H](Cc1ccccc1)NC(=O)[C@H](CC(N)=O)NC(=O)[C@H](CCCCN)NC(=O)[C@H](CC(=O)O)NC(=O)[C@H](C)N)C(=O)N[C@@H](C)C(=O)N[C@@H](C)C(=O)N[C@@H](CCCCN)C(=O)N[C@@H](CCCCNC(=O)CCCC[C@@H]1SC[C@@H]2NC(=O)N[C@@H]21)C(N)=O` [Clone D115] (H-ADKNFYDWFMAAKK(Biotin)-NH2), for which the Kd in series [3] (read-out: Kd (µM) HIR) was 8.1 µM; in series [4], greater than 20 µM.

In the case of `CC(C)[C@H](NC(=O)[C@H](Cc1ccccc1)NC(=O)[C@H](Cc1c[nH]c2ccccc12)NC(=O)[C@H](CC(=O)O)NC(=O)[C@H](Cc1ccc(O)cc1)NC(=O)[C@H](Cc1ccccc1)NC(=O)[C@H](CC(N)=O)NC(=O)[C@H](CCC(=O)O)NC(=O)[C@H](Cc1c[nH]cn1)NC(=O)[C@H](Cc1ccccc1)NC(=O)[C@@H](N)CCCCN)C(=O)N[C@@H](CCCNC(=N)N)C(=O)N[C@@H](CCC(N)=O)C(=O)N[C@H](C(=O)N[C@@H](CO)C(=O)N[C@@H](CCCCN)C(=O)N[C@@H](CCCCNC(=O)CCCC[C@@H]1SC[C@@H]2NC(=O)N[C@@H]21)C(N)=O)C(C)C` [Clone D117K], the Kd was found to be 0.82 µM in series [3] (read-out: Kd (µM) HIR) and 9.1 µM in series [4].

`CSCC[C@H](NC(=O)[C@H](CC(C)C)NC(=O)[C@H](CCCNC(=N)N)NC(=O)[C@H](CC(=O)O)NC(=O)[C@H](CC(C)C)NC(=O)[C@H](C)NC(=O)[C@H](CC(=O)O)NC(=O)[C@@H](N)CC(C)C)C(=O)N[C@@H](CCCNC(=N)N)C(=O)N[C@@H](Cc1ccc(O)cc1)C(=O)N[C@@H](Cc1ccccc1)C(=O)N[C@@H](CCC(=O)O)C(=O)N[C@@H](CCC(=O)O)C(=O)N[C@@H](CCCNC(=N)N)C(=O)N1CCC[C@H]1C(=O)N[C@@H](CO)C(=O)N[C@@H](CC(C)C)C(N)=O` [Clone S173] came in with an IC50 at IGF-1R [5] of 5620 nM.

Compound `CC(C)C[C@H](NC(=O)[C@@H]1CCCN1)C(=O)N[C@@H](C)C(=O)N[C@@H](CCC(=O)O)C(=O)N[C@@H](CC(C)C)C(=O)N[C@@H](Cc1c[nH]c2ccccc12)C(=O)N[C@@H](C)C(=O)N[C@@H](Cc1ccc(O)cc1)C(=O)N[C@@H](Cc1ccccc1)C(=O)N[C@@H](CCC(=O)O)C(=O)N[C@@H](Cc1c[nH]cn1)C(=O)N[C@@H](CO)C(=O)N[C@@H](CCC(=O)O)C(=O)N[C@@H](CCC(N)=O)C(=O)NCC(=O)N[C@@H](CCCNC(=N)N)C(=O)N[C@@H](CO)C(=O)N[C@@H](CO)C(=O)N[C@@H](C)C(=O)N[C@@H](Cc1c[nH]cn1)C(N)=O` [Clone S174] yielded a concentration for half-maximal inhibition (IC50) at IGF-1R [5] of 1460 nM. Also, the Kd in series [3] (read-out: HIR affinity) is 16 µM.

On IGF-1R [5], AFYDWFAKK-NH2 [Clone S167] came in with a half-maximal inhibitory concentration (IC50) of roughly 100000 nM. The Kd in series [3] (read-out: HIR affinity) was greater than 20 µM.

Compound EHWNTVDPFYFTLFEWLRESG-NH2 [Clone S177] came in with an IC50 at IGF-1R [5] of 2040 nM. In addition, in series [3] (read-out: HIR affinity), the Kd stood at 2.7 µM.

For EHWNTVDPFYQYFSELLRESG-NH2 [Clone S178], the 50% inhibitory concentration (IC50) on IGF-1R [5] turned out to be 240 nM. Also, the Kd in series [3] (read-out: HIR affinity) was 0.13 µM.

Turning to KSMFVAGSDRWPGYGVLADWLKK [Clone F2], the “Absorbance Values sIGF-1R” value in the series with IGF-1R [1] was 2.08. In addition, the “Absorbance Values IR” value with IR amounted to 1.43.

On IGF-1R [5], NGVERAGTGDNFYDWFVAQLH-NH2 [Clone S176] showed an IC50 of 418 nM. For the same compound, the Kd in series [3] (read-out: HIR affinity) was found to be 0.47 µM.

Compound QSDSGTVHDRFYGWFRDTWAS-NH2 [Clone S179] showed an IC50 at IGF-1R [5] of 5350 nM. For the same compound, the Kd in series [3] (read-out: HIR affinity) came out at 0.54 µM.

For the compound “TFYSCLASLLTGTPQPNRGPWERCR [20C-3-G3-IGFR]”, in the series with IGF-1R [5], the half-maximal inhibitory concentration (IC50) is 184 nM.
